Results taken from ChEMBL document CHEMBL1141727, “Isolation and cytotoxic evaluation of marine sponge-derived norterpene peroxides” (J Nat Prod, 1998).

Columns and labels:
Format in all cases: functional
CCRF-CEM = experiment: Growth inhibition of human CCRF-CEM cells
HL-60(TB) = experiment: Growth inhibition of human HL-60(TB) cells
K562 = experiment: Growth inhibition of human K562 cells
MOLT-4 = experiment: Growth inhibition of human MOLT4 cells
[1] = Growth inhibition of human […] cells
SR = experiment: Growth inhibition of human SR cells
A549 = experiment: Growth inhibition of human A549 cells
EKVX = experiment: Growth inhibition of human EKVX cells
HOP-62 = experiment: Growth inhibition of human HOP62 cells
HOP-92 = experiment: Growth inhibition of human HOP92 cells
NCI-H226 = experiment: Growth inhibition of human NCI-H226 cells
NCI-H23 = experiment: Growth inhibition of human NCI-H23 cells
NCI-H322M = experiment: Growth inhibition of human NCI-H322M cells
NCI-H522 = experiment: Growth inhibition of human NCI-H522 cells
COLO 205 = experiment: Growth inhibition of human COLO205 cells
HCC 2998 = experiment: Growth inhibition of human HCC2998 cells
HCT-116 = experiment: Growth inhibition of human HCT116 cells
HCT-15 = experiment: Growth inhibition of human HCT15 cells
HT-29 = experiment: Growth inhibition of human HT-29 cells
KM12 = experiment: Growth inhibition of human KM12 cells
SW-620 = experiment: Growth inhibition of human SW620 cells
SF-295 = experiment: Growth inhibition of human SF295 cells
SF-539 = experiment: Growth inhibition of human SF539 cells
SNB-19 = experiment: Growth inhibition of human SNB19 cells
SNB-75 = experiment: Growth inhibition of human SNB75 cells
U-251 = experiment: Growth inhibition of human U251 cells
LOX IMVI = experiment: Growth inhibition of human LOXIMVI cells
Malme-3M = experiment: Growth inhibition of human MALME-3M cells
M14 = experiment: Growth inhibition of human M14 cells
SK-MEL-2 = experiment: Growth inhibition of human SK-MEL-2 cells
SK-MEL-28 = experiment: Growth inhibition of human SK-MEL-28 cells
SK-MEL-5 = experiment: Growth inhibition of human SK-MEL-5 cells
UACC-257 = experiment: Growth inhibition of human UACC257 cells
UACC-62 = experiment: Growth inhibition of human UACC62 cells
IGROV-1 = experiment: Growth inhibition of human IGROV1 cells
OVCAR-3 = experiment: Growth inhibition of human OVCAR-3 cells
OVCAR-4 = experiment: Growth inhibition of human OVCAR4 cells
OVCAR-5 = experiment: Growth inhibition of human OVCAR5 cells
OVCAR-8 = experiment: Growth inhibition of human OVCAR8 cells
SK-OV-3 = experiment: Growth inhibition of human SKOV3 cells
786-0 = experiment: Growth inhibition of human 786-0 cells
A498 = experiment: Growth inhibition of human A498 cells
ACHN = experiment: Growth inhibition of human ACHN cells
CAKI-1 = experiment: Growth inhibition of human Caki1 cells
RXF 393 = experiment: Growth inhibition of human […] cells
TK-10 = experiment: Growth inhibition of human TK10 cells
UO-31 = experiment: Growth inhibition of human UO31 cells
DU-145 = experiment: Growth inhibition of human DU145 cells
MCF7 = experiment: Growth inhibition of human MCF7 cells
[2] = Growth inhibition of human MCF7/ADR resistant cells; settings: NCI/ADR-RES
MDA-MB-231 = experiment: Growth inhibition of human MDA-MB-231 cells
MDA-MB-435 = experiment: Growth inhibition of human MDA-MB-435 cells
L1210 = experiment: Growth inhibition of mouse L1210 cells assessed as zone units at 50 ug/disk by disk diffusion agar colony formation assay
P388 = experiment: Growth inhibition of mouse P388 cells assessed as zone units at 50 ug/disk by disk diffusion agar colony formation assay
PO3 = experiment: Growth inhibition of mouse PO3 cells assessed as zone units at 50 ug/disk by disk diffusion agar colony formation assay
[3] = Growth inhibition of human H125 cells assessed as zone units at 50 ug/disk by disk diffusion agar colony formation assay
NCI-H460 = experiment: Growth inhibition of human NCI-H460 cells
SF-268 = experiment: Growth inhibition of human SF268 cells
SN12C = experiment: Growth inhibition of human SN12C cells
PC-3 = experiment: Growth inhibition of human PC3 cells
MDA-N = experiment: Growth inhibition of human MDA-N cells
BT-549 = experiment: Growth inhibition of human BT549 cells
T47D = experiment: Growth inhibition of human T47D cells
[4] = Growth inhibition of mouse M17/ADR cells assessed as zone units at 50 ug/disk by disk diffusion agar colony formation assay
[5] = Growth inhibition of human H116 cells assessed as zone units at 50 ug/disk by disk diffusion agar colony formation assay

Which results are given for C=C1CCCC(C)(C)C1(O)CC/C(C)=C/CC[C@]1(C)CC[C@@H]([C@@H](C)C(=O)OC)OO1 (some centres not stated) [MUQUBILIN B]?
GI50 (CCRF-CEM): > 17500 nM; GI50 (HL-60(TB)): > 17500 nM; GI50 (K562): > 17500 nM; GI50 (MOLT-4): > 17500 nM; GI50 [1]: > 17500 nM; GI50 (SR): > 17500 nM; GI50 (A549): > 17500 nM; GI50 (EKVX): > 17500 nM; GI50 (HOP-62): > 17500 nM; GI50 (HOP-92): > 17500 nM; GI50 (NCI-H226): > 17500 nM; GI50 (NCI-H23): > 17500 nM; GI50 (NCI-H322M): > 17500 nM; GI50 (NCI-H522): 12800 nM; GI50 (COLO 205): > 17500 nM; GI50 (HCC 2998): > 17500 nM; GI50 (HCT-116): > 17500 nM; GI50 (HCT-15): > 17500 nM; GI50 (HT-29): > 17500 nM; GI50 (KM12): > 17500 nM; GI50 (SW-620): > 17500 nM; GI50 (SF-295): > 17500 nM; GI50 (SF-539): > 17500 nM; GI50 (SNB-19): > 17500 nM; GI50 (SNB-75): 15000 nM; GI50 (U-251): > 17500 nM; GI50 (LOX IMVI): 5220 nM; GI50 (Malme-3M): > 17500 nM; GI50 (M14): > 17500 nM; GI50 (SK-MEL-2): > 17500 nM; GI50 (SK-MEL-28): > 17500 nM; GI50 (SK-MEL-5): > 17500 nM; GI50 (UACC-257): > 17500 nM; GI50 (UACC-62): > 17500 nM; GI50 (IGROV-1): 2420 nM; GI50 (OVCAR-3): > 17500 nM; GI50 (OVCAR-4): > 17500 nM; GI50 (OVCAR-5): > 17500 nM; GI50 (OVCAR-8): > 17500 nM; GI50 (SK-OV-3): > 17500 nM; GI50 (786-0): > 17500 nM; GI50 (A498): > 17500 nM; GI50 (ACHN): > 17500 nM; GI50 (CAKI-1): > 17500 nM; GI50 (RXF 393): > 17500 nM; GI50 (TK-10): > 17500 nM; GI50 (UO-31): > 17500 nM; GI50 (DU-145): > 17500 nM; GI50 (MCF7): > 17500 nM; GI50 [2]: > 17500 nM; GI50 (MDA-MB-231): > 17500 nM; GI50 (MDA-MB-435): > 17500 nM; Activity (L1210): 80 Zone units; Activity (P388): 80 Zone units; Activity (PO3): 90 Zone units; Activity [3]: 0 Zone units

Which GI50 (HL-60(TB)) does the source give for C=C1CCC[C@H]2[C@](C)(CC[C@]3(C)CC[C@@H]([C@@H](C)C(=O)O)OO3)[C@@H](C)CC[C@]12C [SIGMOSCEPTRELLIN C] here?
Its GI50 is 140 nM.

And the GI50 (MOLT-4)?
The GI50 was 840 nM.

What about the GI50 (A549) of the same molecule?
Its GI50 is 940 nM.

What about the GI50 (EKVX) of the same molecule?
Its GI50 is 1090 nM.

What about the GI50 (HOP-62) of the same molecule?
The GI50 was 1040 nM.

And the GI50 (HOP-92)?
Its GI50 is 1080 nM.

And the GI50 (NCI-H226)?
The GI50 was > 5000 nM.

What about the GI50 (NCI-H23) of the same molecule?
Its GI50 is 1000 nM.

And the GI50 (NCI-H322M)?
Its GI50 is 4190 nM.

What about the GI50 (NCI-H460) of the same molecule?
The GI50 was 600 nM.

What about the GI50 (COLO 205) of the same molecule?
The GI50 was 970 nM.

And the GI50 (HCC 2998)?
The GI50 was 1030 nM.

What about the GI50 (HCT-116) of the same molecule?
The GI50 was 1060 nM.

And the GI50 (HCT-15)?
Its GI50 is 1160 nM.

What about the GI50 (HT-29) of the same molecule?
Its GI50 is 1030 nM.

What about the GI50 (KM12) of the same molecule?
Its GI50 is 950 nM.

And the GI50 (SW-620)?
The GI50 was 1160 nM.

And the GI50 (SF-268)?
The GI50 was 1040 nM.

And the GI50 (SF-295)?
The GI50 was 820 nM.

What about the GI50 (SF-539) of the same molecule?
Its GI50 is 1070 nM.

And the GI50 (SNB-19)?
The GI50 was > 5000 nM.

What about the GI50 (SNB-75) of the same molecule?
Its GI50 is 830 nM.

What about the GI50 (U-251) of the same molecule?
The GI50 was 930 nM.

What about the GI50 (LOX IMVI) of the same molecule?
Its GI50 is 160 nM.

And the GI50 (M14)?
The GI50 was > 5000 nM.

What about the GI50 (SK-MEL-2) of the same molecule?
The GI50 was > 5000 nM.

And the GI50 (SK-MEL-28)?
Its GI50 is 2370 nM.

What about the GI50 (SK-MEL-5) of the same molecule?
The GI50 was 1940 nM.

And the GI50 (UACC-257)?
Its GI50 is > 5000 nM.

And the GI50 (IGROV-1)?
Its GI50 is 100 nM.

And the GI50 (OVCAR-3)?
Its GI50 is 990 nM.

What about the GI50 (OVCAR-4) of the same molecule?
The GI50 was 950 nM.

What about the GI50 (OVCAR-5) of the same molecule?
Its GI50 is 2720 nM.

What about the GI50 (OVCAR-8) of the same molecule?
Its GI50 is 2530 nM.

What about the GI50 (SK-OV-3) of the same molecule?
Its GI50 is 970 nM.

And the GI50 (786-0)?
Its GI50 is 500 nM.

And the GI50 (A498)?
Its GI50 is 1590 nM.

What about the GI50 (ACHN) of the same molecule?
The GI50 was 920 nM.

And the GI50 (CAKI-1)?
The GI50 was 600 nM.

What about the GI50 (RXF 393) of the same molecule?
Its GI50 is 2950 nM.

And the GI50 (SN12C)?
The GI50 was 780 nM.

And the GI50 (TK-10)?
The GI50 was 1490 nM.

And the GI50 (UO-31)?
Its GI50 is 900 nM.

And the GI50 (PC-3)?
Its GI50 is 1770 nM.

And the GI50 (MCF7)?
The GI50 was 3790 nM.

And the GI50 [2]?
The GI50 was 770 nM.

And the GI50 (MDA-MB-231)?
Its GI50 is 1810 nM.

What about the GI50 (MDA-MB-435) of the same molecule?
Its GI50 is 2060 nM.

And the GI50 (MDA-N)?
The GI50 was 910 nM.

What about the GI50 (BT-549) of the same molecule?
The GI50 was 960 nM.

What about the GI50 (T47D) of the same molecule?
Its GI50 is 860 nM.

And the Activity (L1210)?
The Activity was 220 Zone units.

What about the Activity (P388) of the same molecule?
Its Activity is 220 Zone units.

What about the Activity (PO3) of the same molecule?
The Activity was 190 Zone units.

And the Activity [4]?
Its Activity is 220 Zone units.

And the Activity [5]?
The Activity was 230 Zone units.
